Values after ≈ are worked out from the molar mass of the structure shown. Read-outs that look alike come from different tables or passages of the source.
Columns and labels:
[1] = system: Trypanosoma brucei rhodesiense STIB 900; experiment: In vitro assay for Trypanosoma brucei rhodesiense (resazurin); format: cell-based
Description: Trypanosoma brucei rhodesiense STIB 900 strain, isolated in 1982 from a human patient in Tanzania and, after several mouse passages, cloned and adapted to axenic culture conditions, was used in this assay. Minimum essential medium (50 μL) supplemented with 25 mM HEPES, 1 g/L additional glucose, 1% MEM non-essential amino acids (100×), 0.2 mM 2-mercaptoethanol, 1 mM Na-pyruvate, and 15% heat inactivated horse serum was added to each well of a 96 well microtiter plate. Serial drug dilutions of seven 3-fold dilution steps covering a range from 90 to 0.123 μg/mL were prepared, and then 4 × 10^4 blood stream forms of T. b. rhodesiense STIB 900 in 50 μL were added to each well and the plate was incubated at 37 °C under a 5% CO2 atmosphere for 72 h. Resazurin solution (resazurin, 12.5 mg in 100 mL double-distilled water) (10 μL) was then added to each well and incubated for a further 2–4 h. At the end of the assay, the plates were read with a Spectramax Gemini XS microplate fluorometer (Molecular Devices Cooperation, Sunnyvale, CA, USA) using an excitation wavelength of 536 nm and an emission wavelength of 588 nm. Data were analyzed using the microplate reader software Softmax Pro (Molecular Devices Cooperation, Sunnyvale, CA, USA). Melarsoprol was used as standard drug.

[2] = system: L. donovani (strain MHOM/ET/67/L82) amastigotes; experiment: In vitro assay for Leishmania donovani axenic amastigotes (resazurin); format: cell-based; details: axenic amastigotes, 72 h, means of two determinations ± deviation, read-out: IC50 Leishmania donovani
Description: Amastigotes of L. donovani (strain MHOM/ET/67/L82) were grown in axenic culture at 37 °C in SM medium at pH 5.4 supplemented with 10% heat-inactivated FBS under an atmosphere of 5% CO2. Culture medium (100 μL) with 10^5 amastigotes from axenic culture with or without a serial drug dilution was seeded in 96 well microtiter plates. Serial drug was prepared covering a range of dilutions from 90 to 0.123 μg/mL. After 72 h of incubation, the plates were inspected under an inverted microscope to assure growth of the controls and sterile conditions. Subsequently, 10 μL resazurin solution (12.5 mg resazurin dissolved in 100 mL double-distilled water) was added to each well and the plates were incubated for another 2 h. The plates were then read with a Spectramax Gemini XS microplate fluorometer (Molecular Devices Cooperation, Sunnyvale, CA, USA) using an excitation wavelength of 536 nm and an emission wavelength of 588 nm. Data were analyzed using the software Softmax Pro (Molecular Devices Cooperation, Sunnyvale, CA, USA). A decrease of fluorescence (=inhibition) was expressed as percentage of the fluorescence of control cultures and plotted against the drug concentrations. From the sigmoidal inhibition curves, the IC50 values were calculated. Miltefosine was used as a reference drug.

[3] = system: P. falciparum K1 strain; experiment: In vitro assay for Plasmodium falciparum ([3H]-hypoxanthine incorporation); format: cell-based
Description: Activity against the erythrocytic stages of P. falciparum was determined using an in vitro modified [^3H]-hypoxanthine incorporation assay, using the chloroquine- and pyrimethamine-resistant K1 strain [68]. Compounds were dissolved in DMSO at 10 mg/mL and further diluted in medium before added to parasite cultures incubated in RPMI 1640 medium without hypoxanthine, supplemented with HEPES (5.94 g/l), NaHCO3 (2.1 g/L), neomycin (100 U/mL), AlbumaxR (5 g/L), and washed human red cells A+ at 2.5% haematocrit (0.3% parasitaemia). Serial drug dilutions of seven 3-fold dilution steps covering a range from 90 to 0.123 μg/mL were prepared. The 96 well plates were incubated in a humidified atmosphere at 37 °C; 4% CO2, 3% O2, 93% N2. After 48 h 50 μL of ^3H-hypoxanthine (=0.5 μCi) was added to each well of the plate. The plates were incubated for a further 24 h under the same conditions. The plates were then harvested with a Betaplate™ cell harvester (Wallac, Zurich, Switzerland), and the red blood cells transferred onto a glass fiber filter then washed with distilled water. The dried filters were inserted into a plastic foil with 10 mL of scintillation fluid, and counted in a Betaplate™ liquid scintillation counter (Wallac, Zurich, Switzerland). […] IC50 values were calculated from the sigmoidal inhibition curves using Microsoft Excel. Chloroquine was used as positive control drug.

[4] = In vitro assay for cytotoxicity on mammalian cells (resazurin); format: cell-based, rat
Description: (§1) Assays were performed in 96 well microtiter plates (4 × 10^4 L6 cells/well), each well containing 100 μL of RPMI 1640 medium supplemented with 1% L-glutamine (200 mM) and 10% FBS. L6 cells are a primary cell line derived from rat skeletal myoblasts. Serial drug dilutions of seven 3-fold dilution steps covering a range from 90 to 0.123 μg/mL were prepared. After 72 h of incubation, the plates were inspected under an inverted microscope to assure growth of the controls and sterile conditions. Resazurin solution (10 μL) (12.5 mg resazurin in 100 mL double-distilled water) was then added to each well and the plates incubated for another 2 h. The plates were then read with a Spectramax Gemini XS microplate fluorometer (Molecular Devices Cooperation, Sunnyvale, CA, USA) using an excitation wavelength of 536 nm and an emission wavelength of 588 nm. Data were analyzed using the microplate reader software Softmax Pro (Molecular Devices Cooperation, Sunnyvale, CA, USA). From the sigmoidal inhibition curves, the IC50 values were calculated. Podophyllotoxin was the positive control.

[5] = system: T. cruzi Tulahuen strain C2C4; experiment: In vitro assay for Trypanosoma cruzi in L-6 cells (β-galactosidase/CPRG); format: cell-based; details: Trypanosoma cruzi, L6; Tulahuen C2C4 in L-6 cells, 96 h; highest concentration tested 90 μg/mL; means of two determinations ± deviation
Description: Rat skeletal myoblasts (L-6 cells) were seeded in 96 well microtiter plates (2000 cells/well) in 100 μL RPMI 1640 medium with 10% FBS and 2 mM L-glutamine for 24 h. After that, the medium was removed and replaced by 100 μL per well containing 5000 trypomastigote forms of T. cruzi Tulahuen strain C2C4, containing the β-galactosidase (Lac Z) gene. The medium was removed from the wells after 48 h, and replaced with 100 μL fresh medium with or without a serial drug dilution of seven 3-fold dilution steps covering a range from 90 to 0.123 μg/mL. After 96 h of incubation, the plates were inspected under an inverted microscope to assure growth of the controls and sterility, after which the substrate CPRG/Nonidet ([…]) was added to all wells. A color reaction developed within 2–6 h and could be read photometrically at 540 nm. Data were transferred into the graphic program Softmax Pro (Molecular Devices Cooperation, Sunnyvale, CA, USA) and the IC50 values were calculated from the sigmoidal dose response curves. Benznidazole was the reference drug.

[6] = system: T. brucei brucei STIB795; experiment: In vivo trypanocidal activity, T. brucei brucei STIB795 mouse model; parameters: species or system Trypanosoma brucei brucei; details: 5.0 mg/kg × 4 days i.p., NMRI mice; for Mean Survival: untreated control 5.25 days
Description: In vivo efficacy studies in mice were conducted at the Swiss Tropical and Public Health Institute (Basel) (License number 2813) according to the rules and regulations for the protection of animal rights (“Tierschutzverordnung”) of the Swiss “Bundesamt für Veterinärwesen”. They were approved by the veterinary office of Canton Basel-Stadt, Switzerland. Groups of four female NMRI mice weighing 20 to 25 g were infected i.p. on Day 0 (d0) with 10^5 bloodstream forms of T. brucei brucei STIB 795, which is a derivative of strain 427. Compounds were formulated in 100% DMSO diluted 10-fold in distilled water. Mice were treated on four consecutive days (d3 to d6 post-infection) with the Origanum onites oil, as well as carvacrol and thymol, at 100 mg/kg by the i.p. route. One group served as untreated controls, and two other groups were treated with the standard drugs pentamidine (5 mg/kg for 4 days) and melarsoprol (2 mg/kg for 4 days), respectively. The levels of parasitemia of the mice were checked by microscopic examination of tail blood on Day 7 and thereafter twice a week until Day 30 post infection. Mice were considered cured when there was no parasitaemia relapse detected in the tail blood over the 30 day observation period. The day of relapse and surviving days were recorded.

[7] = system: T. brucei bloodstream forms; parameters: method as in PMID 10865458; details: cited from earlier work
[8] = system: L6 cells; experiment: In vitro assay for cytotoxicity on mammalian cells (resazurin); format: cell-based, rat; details: rat
Description: as §1

[9] = Trypanosoma brucei, 72 h, STIB 900 blood stream forms, 72 h; means of two independent determinations ± deviation from the mean; read-out: IC50 Trypanosoma brucei rhodesiense
[10] = K1 strain (chloroquine- and pyrimethamine-resistant), erythrocytic stages, means of two determinations ± deviation, read-out: IC50 Plasmodium falciparum
[11] = L6 cells (rat skeletal myoblasts), rat skeletal myoblasts, 72 h, means of two determinations ± deviation, read-out: IC50 Cytotoxicity L6 cells
[12] = rat skeletal myoblasts, 72 h, means of two determinations ± deviation, read-out: IC50 Cytotoxicity L6 cells

CC1(C)C2CCC1(C)C(O)C2 (stereo not drawn) [Borneol]
IC50 [1, 9]: 24.3 ± 11.8 µg/mL (≈ 158 µM) | IC50 [2]: 52.1 ± 16.6 µg/mL (≈ 338 µM) | IC50 [3, 10]: > 20 µg/mL | IC50 at 72 h [4, 11]: > 90 µg/mL | IC50 [5]: > 90 µg/mL

COc1cc(C(C)C)ccc1C [Carvacrol Methyl Ether]
IC50 [1, 9]: 17 ± 22 µg/mL (≈ 104 µM) | IC50 [2]: 17.5 ± 1.7 µg/mL (≈ 107 µM) | IC50 [3, 10]: > 20 µg/mL | IC50 at 72 h ([4]; rat): > 90 µg/mL | IC50 [5]: > 90 µg/mL

C=C[C@](C)(O)CCC=C(C)C [L-Linalool]
IC50 [1, 9]: 3.6 ± 2.5 µg/mL (≈ 23.3 µM) | IC50 [2]: 86.3 ± 2.8 µg/mL (≈ 559 µM) | IC50 [3, 10]: > 20 µg/mL | IC50 at 72 h ([4]; rat): > 90 µg/mL | IC50 [5]: > 90 µg/mL

C=CC(=C)CCC=C(C)C [Myrcene]
IC50 [1, 9]: 22 ± 14.8 µg/mL (≈ 161 µM) | IC50 [2]: 48.2 ± 12.7 µg/mL (≈ 354 µM) | IC50 [3, 10]: > 20 µg/mL | IC50 at 72 h [4, 11]: > 90 µg/mL | IC50 [5]: > 90 µg/mL

N=C(N)c1ccc(OCCCCCOc2ccc(C(=N)N)cc2)cc1 [Pentamidine, reference compound]
Cured/Infected [6]: 4/4 | Mean Survival [6]: >30 days | Mean Survival ([6]; listed as pentamidine): over 30 days

CC1=CCC(O)(C(C)C)CC1 (stereo not drawn) [Terpinen-4-ol]
IC50 [1, 9]: 0.66 ± 0.4 µg/mL (≈ 4.28 µM) | IC50 [2]: 68.7 ± 14.2 µg/mL (≈ 445 µM) | IC50 [3, 10]: > 20 µg/mL | IC50 at 72 h [4, 11]: 43.3 ± 16.5 µg/mL (≈ 281 µM) | ED50 T. brucei bloodstream forms [7]: 0.02 µg/mL (≈ 0.13 µM) | selectivity to the parasite than to the human cell line [7]: 1000 fold | IC50 [5]: 46.8 ± 7.4 µg/mL (≈ 303 µM)

COc1cc(C)ccc1C(C)C [Thymol Methyl Ether]
IC50 [1, 9]: 4.1 ± 1.97 µg/mL (≈ 25 µM) | IC50 [2]: 86 ± 1.9 µg/mL (≈ 524 µM) | IC50 [3, 10]: > 20 µg/mL | IC50 at 72 h ([4]; rat): > 90 µg/mL | IC50 [5]: > 90 µg/mL

CC1=CC(=O)C(C(C)C)=CC1=O [Thymoquinone]
IC50 [1, 9]: 0.11 ± 0.02 µg/mL (≈ 0.67 µM) | IC50 [2]: 1.7 ± 0.16 µg/mL (≈ 10.4 µM) | IC50 [3, 10]: 2.6 ± 0.16 µg/mL (≈ 15.8 µM) | IC50 at 72 h [4, 11]: 20.5 ± 8.1 µg/mL (≈ 125 µM) | fold higher cytotoxicity on L6 cells than thymol [8]: 2.5 fold | IC50 [5]: 18.2 ± 4.3 µg/mL (≈ 111 µM)

O=C(Cn1ccnc1[N+](=O)[O-])NCc1ccccc1 [benznidazole, reference compound]
IC50 [5]: 0.44 µg/mL (≈ 1.69 µM)

CCN(CC)CCCC(C)Nc1ccnc2cc(Cl)ccc12 (stereo not drawn) [chloroquine, reference compound]
IC50 ([3]; K1, read-out: IC50 Plasmodium falciparum): 0.056 µg/mL (≈ 0.175 µM)

Nc1nc(N)nc(Nc2ccc([As]3SCC(CO)S3)cc2)n1 (stereo not drawn) [melarsoprol, reference compound]
IC50 ([1]; Trypanosoma brucei, 72 h, read-out: IC50 Trypanosoma brucei rhodesiense): 0.003 µg/mL

CCCCCCCCCCCCCCCCOP(=O)([O-])OCC[N+](C)(C)C [miltefosine, reference compound]
IC50 [2]: 0.2 µg/mL (≈ 0.491 µM)

Cc1ccc(C(C)C)cc1 [p-Cymene]
IC50 [1, 9]: 45 ± 27 µg/mL (≈ 335 µM) | IC50 [2]: > 90 µg/mL | IC50 [3, 10]: > 20 µg/mL | IC50 at 72 h [4, 11]: > 90 µg/mL | IC50 [5]: > 90 µg/mL

COc1cc([C@@H]2c3cc4c(cc3[C@H](O)[C@H]3COC(=O)[C@H]23)OCO4)cc(OC)c1OC [phodophyllotoxin, reference compound]
IC50 at 72 h [4, 12]: 0.004 µg/mL (≈ 0.00965 µM)

CC1=CC[C@@H](C(C)(C)O)CC1 [α-Terpineol]
IC50 [1, 9]: 0.56 ± 0.4 µg/mL (≈ 3.63 µM) | IC50 [2]: 75.9 ± 4.7 µg/mL (≈ 492 µM) | IC50 [3, 10]: > 20 µg/mL | IC50 [4, 12]: 32.3 ± 0.1 µg/mL (≈ 209 µM) | IC50 [5]: 61 ± 2.1 µg/mL (≈ 395 µM)

C=C1CC/C=C(\C)CC[C@@H]2[C@@H]1CC2(C)C [β-Caryophyllene]
IC50 [1, 9]: 28.9 ± 11.8 µg/mL (≈ 141 µM) | IC50 [2]: 52.4 ± 17.4 µg/mL (≈ 256 µM) | IC50 [3, 10]: 12.8 µg/mL (≈ 62.6 µM) | IC50 at 72 h [4, 11]: 62.2 ± 7 µg/mL (≈ 304 µM) | IC50 [5]: 50.1 ± 12.5 µg/mL (≈ 245 µM)

CC1=CCC(C(C)C)=CC1 [γ-Terpinene]
IC50 ([1]; Trypanosoma brucei; STIB 900 blood stream forms, 72 h; means of two independent determinations ± deviation from the mean; read-out: IC50 Trypanosoma brucei rhodesiense): 32.9 ± 26 µg/mL (≈ 241 µM) | IC50 [2]: > 90 µg/mL | IC50 [3, 10]: > 20 µg/mL | IC50 [4, 12]: > 90 µg/mL | IC50 [5]: > 90 µg/mL

Source: article PMC6930659, “Antiprotozoal Activity of Turkish Origanum onites Essential Oil and Its Components” (Molecules, 2019)
